Measurements taken from US8232101B2, “Identification of antigenic peptides from multiple myeloma cells” (Janssen Pharmaceutica N.V., priority 2009, dated 2012).

How the values were obtained:
[1] = test system: T2 cells loaded with individual peptides; assay: 51Cr Release Assay for activity of CTL generated with peptide-loaded Drosophila aAPC; type: cell-based, human; conditions: for CTL Activities None: number of donors that elicited no activity over total number of donors; for CTL Activities None / CTL Activities Strong / CTL Activities Weak: T2 targets loaded with individual peptide; for Induction of CTL in two normal donors: Donor 1 and Donor 2, FIG. 3 and FIG. 4; for CTL Activities Strong: number of donors that elicited Strong activity over total number of donors; for CTL Activities Weak: number of donors that elicited Weak activity over total number of donors
Description: Drosophila aAPC were generated from Schneider S2 cells (S2 cells), which were originally established in 1969 from several hundred Oregon-R (wild type) Drosophila melanogaster (Oregon-R) embryos (American Type Culture Collection (ATCC) CRL-1963) according to published procedures (Schneider, J. Embryol. Exp. Morph. 1972 Vol 27, pp. 353-365), and deposited in the ATCC(CRL10974). S2 cells are grown in commercial Schneider's Drosophila medium supplemented with 10% heat-inactivated fetal bovine serum. In order to generate aAPCs, human complementary DNAs (cDNAs) for HLA-A2.1, B7.1, LFA-3, ICAM-1 and CD70, were individually inserted into the pRmHa-3 vector and S2 cells were transfected using the calcium phosphate precipitation method with a mixture of HLA-A2.1, B7.1, LFA-3, ICAM-1 and CD70 plasmid DNAs (for aAPC clone 1120) and the phshneo plasmid. (see U.S. Pat. No. 6,225,042 regarding construction and use of pRMHa plasmid vectors). The human cDNAs were prepared using standard techniques by reverse transcription-PCR using primers derived from the published sequences for HLA-A2.1 from K562 cells, B7.1 from K562 cells, LFA-3 from HL60 cells, ICAM-1 from K562 cells, and CD70 from HLA-A2.1+LCL cells. K562 cells are a human erythroleukemic cell line, HL60 cells are a promyelocytic leukemia human cell line, and HLA-A2.1+LCL cells are an Epstein-Barr virus (EBV)-transformed lymphoblastoid cell line (LCL). Stably transfected cells were selected by culturing in Schneider's medium containing geneticin. Prior to scale up of the cells, expression of the transfected genes is induced by the addition of CuSO4. The level of expression is assessed by flow cytometry using anti-HLA-A2.1, anti-B7.1, anti-LFA-3, anti-ICAM-1 and CD70 antibodies. For efficient in vitro activation of the CD8+ lymphocytes, greater than 30% of the Drosophila cells must express the HLA-A2.1 molecule. The Drosophila cells regularly express each of the molecules at levels between 70-90%. Drosophila aAPC were washed and then incubated at RT for 4 hours with 10 μM of different combinations of mixed peptides or individual peptides (See e.g. U.S. Pat. Nos. 6,225,042, 6,355,479, 6,362,001 and 6,790,662; U.S. Patent Application Publication Nos. 2009/0017000 and 2009/0004142; and International Publication No. WO2007/103009). Purified human CD8+ T cells from HLA-A2 positive donors were then incubated with peptide-loaded Drosophila APC at 37° C., 5% CO2, for 5 days. Human IL-2 (20 U/ml, R&D Systems) and IL-7 (30 U/ml, R&D Systems) were added at day 5 and the activated CD8+ T cells (CTL) were re-stimulated twice, at day 7 and day 15, with non-CD8 adherent cells in a total peripheral blood mononuclear cell (PBMC) preparation from the same donor in the presence of peptides.
A number of different CTL were generated using CD8+ T cells from different donors and different combinations of mixed peptides, including combinations that contained only one peptide. For example, 24 selected peptides were mixed or used individually to create different combinations of peptide mixtures (PM) or individual peptides (P5 and P14) and produce peptide-loaded Drosophila APC. The resulting peptide-loaded Drosophila APC were incubated with CD8+ T cells from 2 different donors (Donor 1 and Donor 2) to produce 11 different batches of CTL (Donor 1: PM1, PM2, PM3, PM4, and P14; Donor 2: PM1, PM2, PM3, PM4, P5, and P14) (Table 3).
CTL (Effector) activity was measured with a standard chromium (^51Cr) release assay, with T2 cells (Target) loaded with individual peptides and also with a number of tumor cell lines as target cells (Brunner et al., Immunology. 1968 February; 14(2):181-96). The highest Effector (E) Target (T) ratio (E/T) was 50:1, with 1:5 serial dilutions of CTL (Effector) used to produce a dose response. Before the assay, Target cells (T2 cells at 3×10^6 cells/100 ul in 1×PBS with 4% FCS) were labeled by adding 100 ul of ^51Cr (Perkin Elmer) and incubating at 37° C. for 1 hour. […]

[2] = target: T1, HLA-A2 molecules in T2 cells (Homo sapiens, UniProt P04439, D140Y/D185E/D98H/E176V/E277Q/G131W/G231S/I119V/I121R/I166T/I218V/L300P/L318F/N151K/N90K/P208A/P217A/Q86G/Q94H/R138H/R169H/T345S); assay: HLA-A2 Stabilization Assay (peptide binding, T2 cells, flow cytometry); parameters: key: Strong (S); Median (M); Weak (W); None (N)
T1 construct: HLA-A2 molecules that are synthesized in a transporter associated with antigen processing (TAP)-deficient cell line, T2; host or cells: T2 cells (TAP-deficient human cell line)
Source text: The assay for peptide binding to class I major histocompatibility complex (MHC/HLA-A2) molecules is based on the ability of peptides to stabilize MHC class I, HLA-A2 molecules that are synthesized in a transporter associated with antigen processing (TAP)-deficient cell line, T2 (ATCC® Number: CRL-1992). The extent of stabilization of MHC class I molecules is directly related to the binding affinity of the added peptides (Townsend et al., Cell. 1990 Jul. 27; 62(2):285-95; Andersen et al., Tissue Antigens. 1999 August; 54(2):185-90).
For the assay, T2 cells were plated in 96-well V-bottom plates, 100 ul/well RPMI media, at a density of 1×10^6 cells/ml, with final peptide concentrations of 200 uM, 20 uM, 2 uM, 200 nM, 20 nM, 2 nM, and no peptide as negative control. The cells with peptides were incubated for 18 hours at 26° C., 5% CO2. After 18 hours, the plates were transferred to 37° C., 5% CO2 and incubated for an additional 3 hours. The cells in plate were washed once with FACS buffer (PBS, 2.5% FCS, 1% NaN3) and then stained by adding 1 ul/well FITC-labeled mouse anti-human HLA-A2 antibody (BD Pharmingen, Cat. No. 551285), 1 ul/well PI, and then incubating at 4° C. for 30 minutes. After staining, cells were resuspended in 200 ul of FACS buffer and transferred from 96-well plates to racks of 96 microtubes. Samples were run on a FACScan flow cytometer and the data were analysed by using CellQuest software.
A peptide of Hepatitis B Core protein (HBC) was used as a positive control. The Hepatitis B Core peptide is a potent HLA-A2.1 epitope and consists of residue numbers 18-27 of the core sequence, amino acids […] (SEQ ID NO:73) (Zhang et al. Immunology. 2007, 121(1):105-12).

[3] = truncated versions of P3, P13, P14

Substance | CTL Activities None [1] | HLA-A2 Binding [2, 3] | also measured
YLLPAIVHI (listed as Homo sapiens) [Peptide P8] | 3/3 |  | 
SLVLNLL (listed as Homo sapiens) [Peptide P3-5] |  | N | 
LSLDSSLSSLL (listed as Homo sapiens) [Peptide P17] | 2/10 |  | Induction of CTL in two normal donors [1]: induced CTL; CTL Activities Strong [1]: 4/10; CTL Activities Weak [1]: 4/10
LVLNLLEL (listed as Homo sapiens) [Peptide P3-1] |  | N | 
LLIDDKGTIKL (listed as Homo sapiens) [Peptide P20] | 2/3 |  | CTL Activities Weak [1]: 1/3
LPGMTKV (listed as Homo sapiens) [Peptide P13-4] |  | N | 
LVDLPGMT (listed as Homo sapiens) [Peptide P13-11] |  | N | 
FLASESLLKGAL (listed as Homo sapiens) [Peptide P23] | 1/2 |  | Induction of CTL in two normal donors [1]: induced CTL; CTL Activities Strong [1]: 1/2
LIDLPGIT (listed as Homo sapiens) [Peptide P14-13] |  | N | 
PGITRV (listed as Homo sapiens) [Peptide P14-5] |  | N | 
LPGITRV (listed as Homo sapiens) [Peptide P14-4] |  | N | 
KNPVLLKIL (listed as Homo sapiens) [Peptide P7] | 2/3 |  | CTL Activities Weak [1]: 1/3
TLVDLPGMTK (listed as Homo sapiens) [Peptide P13-6] |  | N | 
NLLPKLHVV (listed as Homo sapiens) [Peptide P9] | 2/2 |  | 
LLGPRLVLA (listed as Homo sapiens) [Peptide P1] | 6/10 |  | Induction of CTL in two normal donors [1]: induced CTL; CTL Activities Strong [1]: 2/10; CTL Activities Weak [1]: 2/10
TLIDLPGI (listed as Homo sapiens) [Peptide P14-8] |  | N | 
DLPGITRV (listed as Homo sapiens) [Peptide P14-3] |  | N | 
LLNMPPAHLK (listed as Homo sapiens) [Peptide P11] |  |  | CTL Activities Strong [1]: 1/2; CTL Activities Weak [1]: 1/2

Substance | CTL Activities None [1] | HLA-A2 Binding [2, 3] | also measured
IDLPGITRV (listed as Homo sapiens) [Peptide P14-2] |  | N | 
RSLFLLYAL (listed as Homo sapiens) [Peptide P4] |  |  | CTL Activities Weak [1]: 1/1
VLNLLEL (listed as Homo sapiens) [Peptide P3-2] |  | N | 
LIDLPGITR (listed as Homo sapiens) [Peptide P14-12] |  | N | 
VDLPGMTKV (listed as Homo sapiens) [Peptide P13-2] |  | N | 
HSLDNSLSILR (listed as Homo sapiens) [Peptide P16] | 2/2 |  | 
DLPGMTK (listed as Homo sapiens) [Peptide P13-15] |  | N | 
FMLQTYGQQL (listed as Homo sapiens) [Peptide P14-18] |  |  | HLA-A2 Binding ([2]; computer predicted peptides): N
DLPGMTKV (listed as Homo sapiens) [Peptide P13-3] |  | N | 
KLLEPVLLL (listed as Homo sapiens) [Peptide P6] | 2/3 |  | CTL Activities Weak [1]: 1/3
LLLDVPTAAVQA (listed as Homo sapiens) [Peptide P21] | 2/3 |  | CTL Activities Strong [1]: 1/3
PGMTKV (listed as Homo sapiens) [Peptide P13-5] |  | N | 
LLLDVAYGAVQA (listed as Homo sapiens) [Peptide P22] | 1/2 |  | CTL Activities Strong [1]: 1/2
ALNEEAGRLLL (listed as Homo sapiens) [Peptide P15] | 1/9 |  | Induction of CTL in two normal donors [1]: induced CTL; CTL Activities Strong [1]: 3/9; CTL Activities Weak [1]: 5/9
VLIPKLPQL (listed as Homo sapiens) [Peptide P5] | 2/3 |  | Induction of CTL in two normal donors [1]: induced CTL; CTL Activities Weak [1]: 1/3
FLLPHPGLQV (listed as Homo sapiens) [Peptide P10] | 1/2 |  | Induction of CTL in two normal donors [1]: induced CTL; CTL Activities Strong [1]: 1/2
LLYQGPHNTL (listed as Homo sapiens) [Peptide P12] | 2/3 |  | CTL Activities Weak [1]: 1/3
